pIC50: −log10 of the molar value. Read-outs that look alike come from different tables or passages of the source.
Experiments:
APOL1 = molecular target: T1, APOL1 (Homo sapiens, UniProt O14791); assay: Multi-Tox Assay (MultiTox-Fluor Multiplex Cytotoxicity Assay in tet-inducible APOL1 T-REx-HEK293 cells; Table 46 does not say which APOL1 variant G0/G1/G2); format: cell-based; conditions: APOL1 variant not given; for pIC50: IP50 = IC50 for cell proliferation
T1 sequence (O14791 1-398 S342G/I384M): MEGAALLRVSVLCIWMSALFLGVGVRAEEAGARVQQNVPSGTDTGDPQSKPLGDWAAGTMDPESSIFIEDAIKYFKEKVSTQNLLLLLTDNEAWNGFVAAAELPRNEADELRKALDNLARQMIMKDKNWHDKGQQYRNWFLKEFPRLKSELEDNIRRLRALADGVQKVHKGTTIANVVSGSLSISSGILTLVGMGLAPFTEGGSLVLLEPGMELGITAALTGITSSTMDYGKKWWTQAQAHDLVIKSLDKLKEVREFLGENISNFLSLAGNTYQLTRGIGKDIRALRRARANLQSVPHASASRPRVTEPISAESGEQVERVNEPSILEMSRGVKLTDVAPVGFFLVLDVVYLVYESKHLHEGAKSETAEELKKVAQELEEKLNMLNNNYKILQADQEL

APOL1 G1 = molecular target: T2, APOL1 G1 (Homo sapiens, UniProt O14791, I384M/S342G); assay: Trypanosoma brucei brucei Lysis Assay Using APOL1 Recombinant Protein (AlamarBlue viability readout); format: cell-based; conditions: for Emax: read-out: Trypanosome Assay Max Activity (%)
T2 sequence (O14791 28-398 S342G/I384M): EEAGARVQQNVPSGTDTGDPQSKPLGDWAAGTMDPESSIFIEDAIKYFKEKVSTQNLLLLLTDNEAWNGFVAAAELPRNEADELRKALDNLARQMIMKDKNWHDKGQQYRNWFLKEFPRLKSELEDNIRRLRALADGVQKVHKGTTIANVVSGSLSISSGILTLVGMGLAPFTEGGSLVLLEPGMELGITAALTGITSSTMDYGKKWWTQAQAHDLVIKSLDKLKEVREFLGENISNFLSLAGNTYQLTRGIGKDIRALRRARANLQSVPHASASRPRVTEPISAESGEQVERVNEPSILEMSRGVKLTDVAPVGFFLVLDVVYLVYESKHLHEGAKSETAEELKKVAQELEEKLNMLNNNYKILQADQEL
Method in brief: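 Percent viability comes from AlamarBlue (resazurin→resorufin) fluorescence interpolated on a standard curve of known parasite numbers, with no-APOL1 wells as 100%. Parasites (Lister 427 bloodstream form, 120,000/well, serum-free assay medium) meet 0.05 μg/mL APOL1 (~EC90). Compounds span a 10-point series, 0.1% DMSO final.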

[1] = Trypanosome Assay, IP50 = IC50 for cell proliferation, read-out: Trypanosome Assay IP50

Structure (SMILES)	Multi-Tox Assay Max Activity (%) (APOL1)	pIC50 (APOL1)	pIC50 (APOL1 G1)	Emax (APOL1 G1)	pIC50 (APOL1 G1; [1])	Emax (APOL1 G1; Trypanosome Assay)	IC90 (APOL1)	Trypanosome Assay Max Activity (%) (APOL1 G1; Trypanosome Assay)
CC1CC2(CC(c3ccncc3)N1)OCCc1cc(Cl)sc12 (stereo not drawn) [Compound 30]	99.0%	> 7.30	> 7.30	124%				
C[C@H]1C[C@@]2(C[C@@H](c3cccnn3)N1)OCCc1cc(Cl)sc12 (racemic) [Compound 92]		> 7.30			> 7.30	103%		
C[C@H]1CC2(C[C@@H](c3cn(C)nn3)N1)OCC(C)(C)c1sc(Cl)cc12 (stereo in doubt) [Compound 15]	99.0%	> 7.30			> 7.30	101%		
C[C@H]1C[C@@]2(C[C@@H](c3ccnc(N(C)C)n3)N1)OCCc1cc(Cl)sc12 (racemic) [Compound 127]	99.3%	6.30 to 7.30			6.30 to 7.30	107%		
CC1CC2(CC(C3CCC3)N1)OCCc1cc(Cl)sc12 (mixture of isomers) [Compound 218]		> 7.30			6.30 to 7.30	111%		
CNC(=O)c1ccc(C2CC3(CC(C)N2)OCCc2cc(Cl)sc23)cc1 (stereo not drawn) [Compound 41]		> 7.30			> 7.30	112%		
C[C@H]1C[C@@]2(C[C@@H](c3cn(C)nn3)N1)OCC(O)(C(F)F)c1cc(Cl)sc12 (single isomer, unassigned) [Compound 185]	99.5%	> 7.30			6.30 to 7.30		< 0.05 µM	99.0%
COc1cc(O)cc([C@@H]2C[C@]3(C[C@H](C)N2)OCCc2cc(Cl)sc23)c1 (racemic) [Compound 137]	98.7%	6.30 to 7.30			6.30 to 7.30	84.5%		
Cc1ncc([C@@H]2C[C@]3(C[C@H](C)N2)OCCc2cc(Cl)sc23)o1 (racemic) [Compound 94]		> 7.30			> 7.30	104%		
C[C@H]1C[C@@]2(C[C@@H](CC3CCOCC3)N1)OCCc1cc(Cl)sc12 [Compound 219, (2S,6R)-2-chloro-2′-methyl-6′-(tetrahydropyran-4-ylmethyl)spiro[4,5-dihydrothieno[2,3-c]pyran-7,4′-piperidine]]		< 6.30			< 6.30	71%		
CNc1ncc([C@@H]2C[C@]3(C[C@H](C)N2)OCCc2cc(Cl)sc23)cn1 (racemic) [Compound 60]	99.7%	> 7.30			> 7.30	102%		
C[C@@H]1CC2(C[C@@H](c3cn(C)nn3)N1)OCCc1cc(Cl)sc12 (single isomer, unassigned) [Compound 7]		6.30 to 7.30			< 6.30	92%	0.05 to 0.5 µM	
COc1ccc(C2CC3(CC(C)N2)OCCc2cc(Cl)sc23)nc1 (stereo not drawn) [Compound 34]	99.0%	> 7.30			> 7.30	115%		
C[C@H]1C[C@@]2(C[C@@H](c3cnc(C(N)=O)cn3)N1)OCCc1cc(Cl)sc12 (racemic) [Compound 63]		> 7.30			> 7.30	104%		
Cc1nc[nH]c1[C@@H]1C[C@]2(C[C@H](C)N1)OCCc1cc(Cl)sc12 (racemic) [Compound 161]		< 6.30			< 6.30	73%		
C[C@H]1C[C@@]2(C[C@@H](c3cn(C)nn3)N1)OC[C@@H](O)c1sc(Cl)cc12 [Compound 182]		> 7.30			> 7.30	113%		
Cc1cc([C@@H]2C[C@]3(C[C@H](C)N2)OCCc2cc(Cl)sc23)ccn1 (racemic) [Compound 21, (2S)-2-chloro-2′-methyl-6′-(2-methyl-4-pyridyl)spiro[4,5-dihydrothieno[2,3-c]pyran-7,4′-piperidine]]		> 7.30			> 7.30	108%		
CC1CC2(CC(c3cc(F)cc(C#N)c3)N1)OCCc1cc(Cl)sc12 (stereo not drawn) [Compound 33]		> 7.30			> 7.30	111%		

— US12421249B2, “Inhibitors of APOL1 and methods of using same” (Vertex Pharmaceuticals Incorporated, priority 2020, dated 2025)
